Experiments:
[1] = biological target: T1, endogenous renin in human plasma (Homo sapiens, UniProt P00797); assay: Human plasma renin activity; format: biochemical; conditions: methoxypropylamino vs furfurylamine S3sp binder (compound 5)
T1 sequence (P00797 67-406): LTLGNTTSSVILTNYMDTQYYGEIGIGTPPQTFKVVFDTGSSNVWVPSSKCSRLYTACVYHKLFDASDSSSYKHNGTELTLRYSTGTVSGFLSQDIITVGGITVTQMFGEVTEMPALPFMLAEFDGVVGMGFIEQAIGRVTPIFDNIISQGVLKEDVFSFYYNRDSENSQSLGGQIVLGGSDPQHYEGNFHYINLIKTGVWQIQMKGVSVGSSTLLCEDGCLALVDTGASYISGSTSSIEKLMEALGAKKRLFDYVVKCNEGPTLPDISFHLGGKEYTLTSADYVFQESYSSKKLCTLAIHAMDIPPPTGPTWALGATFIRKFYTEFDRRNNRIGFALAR

[2] = cited from earlier work
[3] = biological target: T2, recombinant human renin (rh-renin) (Homo sapiens, UniProt P00797); assay: Rh-renin inhibition assay; format: biochemical; conditions: 3R,5S-enantiomer vs 3S,5R-enantiomer; rh-renin or hPRA assay
T2 sequence (P00797 67-406): T1 sequence (P00797 67-406)

[4] = Pharmacokinetic analysis in rat cassette dosing; format: in vivo; conditions: 1 mg/kg p.o., n = 3
[5] = test system: human-angiotensinogen and human-renin double transgenic rats (dTg rat); assay: Antihypertensive effect, systolic blood pressure by tail-cuff in dTg rat model
[6] = biological target: pepsin (Homo sapiens, UniProt P0DJD8); assay: Selectivity against aspartic protease pepsin; format: biochemical
Sequence of pepsin (P0DJD8 63-388): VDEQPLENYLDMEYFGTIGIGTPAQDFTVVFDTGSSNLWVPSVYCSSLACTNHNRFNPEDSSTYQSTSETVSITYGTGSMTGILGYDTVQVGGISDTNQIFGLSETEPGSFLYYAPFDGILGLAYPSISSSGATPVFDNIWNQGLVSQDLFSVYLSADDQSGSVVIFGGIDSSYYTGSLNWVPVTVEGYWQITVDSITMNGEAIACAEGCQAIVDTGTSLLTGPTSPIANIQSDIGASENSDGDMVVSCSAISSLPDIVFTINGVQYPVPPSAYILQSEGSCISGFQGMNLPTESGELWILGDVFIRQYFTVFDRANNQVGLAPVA

In the case of `COCCCNc1nc(C(C)(C)C)ncc1C(=O)N(CC(C)C)[C@@H]1CNC[C@H](C(=O)OC)C1` [Compound 6], the “fold decrease in renin inhibitory activity relative to the furfurylamine moiety” value [1] is reported as 10 fold.

For `CC(C)CN(C(=O)c1cnc(C(C)(C)C)nc1NCc1ccco1)[C@H]1CCCNC1` [Compound 1], the “oral bioavailability in rats” value [2] is given as 13.8%.

With `COC(=O)[C@H]1CNC[C@@H](N(CC(C)C)C(=O)c2cnc(C(C)(C)C)nc2NCc2ccco2)C1` [Compound 5] the “fold more potent toward renin than its enantiomer 4” value [3] was “about 30 fold”.

With `COCCCNc1nc(C(C)(C)C)ncc1C(=O)N(CC(C)C)[C@@H]1CNC[C@H](C(=O)N2CCOCC2)C1` [Compound 8] the AUCpo [4] was “not detected”.

For `COCCCCn1c(C(=O)N(CC(C)C)[C@@H]2CNC[C@H](C(=O)N3CCOCC3)C2)nc2ccccc21.Cl` [Compound 10, 1-(4-methoxybutyl)-N-(2-methylpropyl)-N-[(3S,5R)-5-(morpholin-4-yl)carbonylpiperidin-3-yl]-1H-benzimidazole-2-carboxamide hydrochloride], the “antihypertensive efficacy (SBP) compared with aliskiren 75 mg/kg” value ([5]; 3 mg/kg p.o., 5 h after oral administration) was “comparable to that of aliskiren”, the “antihypertensive efficacy (SBP) compared with aliskiren 75 mg/kg” value ([5]; 10 mg/kg p.o., 5 and 24 h after administration) was “exceeded that of aliskiren” and the “antihypertensive efficacy (SBP)” value ([5]; 3 and 10 mg/kg p.o., SBP at 5 and 24 h) was “potent and long-lasting antihypertensive efficacy in a dose-dependent manner”. The IC50 [6] was over 10 µM.
